Laboratory results: patent publication US9487489B2, “Halogen-substituted pyrazole derivatives as pest-control agents” (BAYER CROPSCIENCE AKTIENGESELLSCHAFT, priority 2013, dated 2016)

Columns and labels:
[1] = tested on: Tick nymphs (Amblyomma hebraeum); test: Amblyomma hebraeum test (AMBYHE), tick nymphs immersed; format: in vivo; conditions: application rate 100 ppm; immersed one minute; after 42 days
[2] = tested on: engorged adult female cattle ticks (Boophilus microplus); test: Boophilus microplus injection test (BOOPMI Inj); format: in vivo; conditions: application rate 20 μg/animal; injection into abdomen; assessed after 7 days
Method in brief: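 Efficacy is read at 7 days as fertile egg laying (100% = no fertile eggs laid; 0% = all eggs fertile), with eggs of unclear fertility stored until larvae hatch at about 42 days. Five engorged adult females per dose each receive an abdominal injection of 1 μl compound dissolved in DMSO.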

[3] = tested on: adult cat fleas (Ctenocephalides felis); test: Ctenocephalides felis oral test (CTECFE); format: in vivo; conditions: application rate 100 ppm in citrated cattle blood; after 2 days
Method in brief: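 Mortality read at 2 days as percent of fleas killed. Compound predissolved in DMSO, diluted into citrated cattle blood and offered to roughly 20 unfed adult C. felis via parafilm membrane feeder.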

[4] = tested on: L1 larvae of the Australian sheep blowfly (Lucilia cuprina); test: Lucilia cuprina test (LUCICU); format: in vivo; conditions: application rate 100 ppm; after 2 days
Method in brief: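 Percent mortality read at 2 days; 100% = all larvae killed, 0% = none. Test compound, predissolved in DMSO and water-diluted to the wanted level, was mixed into minced horsemeat holding roughly 20 first-instar larvae.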

[5] = tested on: green peach aphid (Myzus persicae); test: Myzus persicae spray test (MYZUPE); format: in vivo; conditions: application rate 500 g/ha; Chinese cabbage leaf discs; after 6 days
Method in brief: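 Chinese cabbage leaf discs infested with all aphid stages sprayed with compound in acetone/DMF with alkylaryl polyglycol ether emulsifier in water. Efficacy (% aphids killed; 100% all dead, 0% none) scored after 6 days.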

[6] = tested on: larvae of the mustard beetle (Phaedon cochleariae); test: Phaedon cochleariae spray test (PHAECO); format: in vivo; conditions: application rate 500 g/ha; Chinese cabbage leaf discs; after 7 days
Method in brief: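 Kill of mustard beetle larvae is read as % mortality 7 days after spraying. Spray liquid: active compound in acetone plus dimethylformamide, brought up with water holding 1000 ppm alkylaryl polyglycol ether emulsifier and diluted further in emulsifier-water.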

[7] = tested on: southern root-knot nematode (Meloidogyne incognita); test: Meloidogyne incognita test (MELGIN); format: in vivo; conditions: application rate 20 ppm; lettuce; after 14 days
Protocol: K. Meloidogyne incognita Test (MELGIN)
Solvent: 125.0 parts by weight of acetone
To prepare a suitable active compound preparation, 1 part by weight of active compound is mixed with the stated amount of solvent and the concentrate is diluted with water to the desired concentration.
Vessels are filled with sand, active compound solution, an egg/larvae suspension of the southern root-knot nematode (Meloidogyne incognita) and lettuce seeds. The lettuce seeds germinate and the plants develop. On the roots, galls are formed.
After 14 days, the nematicidal efficacy in % is determined by the formation of galls. 100% means that no galls have been found; 0% means that the number of galls on the treated plants corresponds to the untreated control.

[8] = tested on: adult dog ticks (Rhipicephalus sanguineus); test: Rhipicephalus sanguineus in vitro contact test with adult brown dog ticks (T2); conditions: after 48 h
Method in brief: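 Acetone solutions coated onto test tube walls and floor, giving 5 μg/cm^2 at 900 ppm. Five to ten adult ticks held per tube in the dark at room temperature for 48 h, then heated at 45-50° C for up to 5 min; efficacy is the percentage of dead or moribund ticks unable to climb away.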

[9] = tested on: bont tick nymphs (Amblyomma hebraeum); conditions: after 48 h
[10] = tested on: larvae of the red stomach worm (Haemonchus contortus); test: Haemonchus contortus test (HAEMCO); format: in vivo; conditions: application rate 20 ppm; after 5 days
Protocol: T8. Haemonchus contortus-test (HAEMCO)
Solvent: dimethyl sulphoxide
To produce a suitable preparation of active compound, 10 mg of active compound are mixed with 0.5 ml of dimethyl sulphoxide, and the concentrate is diluted with “Ringer solution” to the desired concentration.
Vessels containing the active compound preparation of the desired concentration are populated with about 40 larvae of the red stomach worm (Haemonchus contortus).
After 5 days, the kill in % is determined 100% means that all of the larvae have been killed; 0% means that none of the larvae have been killed.

Cn1nc(C(F)(F)C(F)(F)F)c(C(F)(F)F)c1-n1cc(-c2ccc(Cl)c(C(=O)NC3CC3)c2)cn1 [Ic-1, 2-Chloro-N-cyclopropyl-5-[2′-methyl-5′-(pentafluoroethyl)-4′-(trifluoromethyl)-2′H-1,3′-bipyrazol-4-yl]benzamide]
efficacy (kill in %) [1]: 100% | efficacy (laying of fertile eggs) [2]: 100% | efficacy (kill in %) [3]: 100% | efficacy (kill in %) [4]: 100% | efficacy in % [5]: 90% | efficacy in % [6]: 100% | nematicidal efficacy in % (formation of galls) [7]: 90% | efficacy (dead or moribund ticks) ([8]; application rate 1 μg/cm^2): 100% | efficacy (dead or moribund ticks) ([8]; application rate 5 μg/cm^2): 100% | efficacy (dead or moribund ticks) [9]: 100% | efficacy (kill in %) [10]: 80%
